Measurements published in patent publication US10328092B2, “Methods and compositions for treatment of drug addiction” (The Royal Institution for the Advancement of Learning / …, priority 2015, dated 2019).

Key:
adult microglial cells = test: TNFα mRNA in cultured adult mouse microglia; format: cell-based; settings: cocaine 1 μm, 3 hours
Procedure: (SEQ ID NO: 1) [200 nM]; mouse TNFα reverse, […] (SEQ ID NO: 2) [200 nM]; mouse GAPDH forward, […] (SEQ ID NO: 3) [300 nM]; mouse GAPDH reverse, […] (SEQ ID NO: 4) [300 nM]; rat TNFα forward, […] (SEQ ID NO: 1) [600 nM]; rat TNFα reverse, […] (SEQ ID NO: 5) [600 nM]; rat cyclophilin forward, […] (SEQ ID NO: 6) [500 nM]; rat cyclophilin reverse, […] (SEQ ID NO: 7) [500 nM]. After 40 cycles, the Ct values were determined.
Adult male C57BL/6 mice (8-12 weeks) underwent cardiac perfusion with Hank's Balanced Salt Solution (HBSS) and whole brains were removed. Cortices and striata were dissected, cut in to small pieces and subjected to enzymatic digestion with the Neural Tissue Dissociation Kit (P) (Miltenyi Biotech, US cat no. 130-092-628), as per manufactures instructions. Tissue was homogenised and resuspended in 35% isotonic Percoll, overlayed with HBSS and spun at 400 g for 45 mins for the removal of myelin. Pure populations of microglial cells were obtained through magnetic bead cell sorting using CD11b microbeads (Miltenyi, cat no. 130-093-634). Aliquots from positive and negative bead selected fractions were removed for cell staining to assess cell purity. […] Cells were acquired using a BD FACS Canto II and analyzed using BD FACSDiva software. […]

[1] = Sickness behavior in vivo
TNFα = TNFα mRNA / protein in ventral striatum (NAc) after in vivo treatment; set-up: species or system mouse; settings: for TNFα mRNA in the ventral striatum: single injection of MPLA 10 μg
Procedure: To determine the effect of in vivo cocaine exposure on TNFα levels in the ventral striatum, TNFα mRNA and protein levels were measured in mice given intraperitoneal injections of saline or cocaine. […] To understand the impact of TNFα on synaptic function in the NAc, AMPA/NMDA ratios were measured at glutamatergic synapses on MSNs in the NAc core. Alteration in NAc core AMPA receptors are involved in the expression of behavioral sensitization to psychostimulants (Kalives, 2009).
Mice (8-10 weeks) were perfused and their brains submerged overnight in 4% PFA, cryoprotected with 30% sucrose, and cut in 30 μm thick coronal slices using a cryostat. The sections were incubated for 4 hours with blocking solution (2% normal goat serum, 3% BSA, 0.2% Triton X-100 in PBS) before incubation overnight at 4 C with primary antibodies in blocking solution (rabbit anti-Iba1 antibody [019-19741, Wako; 1:800; RRID: AB_2566825], chicken anti-GFAP antibody [AB5541, Millipore; 1:500; RRID: AB_177521], rabbit anti-NeuN [ab104225, Abcam, 1:400; RRID: AB_10711153], and rabbit anti-TNFα antibody [ab6671, Abcam, 1:100; RRID: AB_305641] or mouse anti-TNFα antibody [ab1793, Abcam, 1:100; RRID: AB_302615]). Sections were washed (2×15 min with PBST [0.05% Tween20] and 1×15 min with PBS at RT) and incubated for 2 hrs at room temperature in secondary antibodies (anti-rabbit, anti-chicken, or anti-mouse IgG-conjugated Alexa Fluorochrome [Invitrogen; 1:400]). Sections were washed and briefly (<30 seconds) incubated with Hoechst 33342 [H1399, Molecular Probes; 1:10,000] in PBS. The stained sections were imaged using an Olympus FluoView FV1000 confocal microscope with Fluoview imaging software (FV10-ASW). Images of the ventral striatum (nucleus accumbens core and shell) were acquired with a 40× or 60× objective and stacks of 25-30 optical sections (1 μm per section) of depth were Z-projected into a single window and analysed using ImageJ software (NIH).
The number of Iba1+ microglia were manually counted from 212×212 μm (60× objectives) or 317×317 μm (40× objectives) images. TNFα intensity was measured using the mean grey value of the entire image while Iba1 intensity measurements were obtained using a thresholded area to highlight only the microglia. Cell body area (μm^2) was measured based on Iba1 staining and using the freehand selection tool. Additional analysis of microglia morphology in saline and cocaine treated mice was done using IMARIS software (Bitplane). […] The following parameters were analyzed for 40 microglia per group: total process length (sum of length of all processes), total process volume, process diameter and number of branch points and terminals. […]
After 40 cycles, the Ct values were determined.

| Compound | TNFα mRNA, cultured adult microglia (adult microglial cells) | sickness behavior [1] | TNF-α levels in vivo, lower than LPS (TNFα; compared with LPS) | TNFα mRNA in the ventral striatum (TNFα; 4 hours) | TNFα mRNA in the ventral striatum (TNFα; 24 hours) |
| --- | --- | --- | --- | --- | --- |
| COC(=O)[C@H]1[C@@H](OC(=O)c2ccccc2)C[C@@H]2CC[C@H]1N2C [cocaine] | 95 % of control | – | – | – | – |
| monophosphoryl lipid A [MPLA] | – | without inducing sickness behavior | 10 fold | significantly increases | significantly increases |
